How the values were obtained:
[1] = Induction of adipocyte differentiation in mouse 3T3-L1 cells at 10 uM
[2] = biological target: T1, Peroxisome proliferator-activated receptor gamma (Homo sapiens, UniProt P37231)
T1 sequence (P37231 whole entry): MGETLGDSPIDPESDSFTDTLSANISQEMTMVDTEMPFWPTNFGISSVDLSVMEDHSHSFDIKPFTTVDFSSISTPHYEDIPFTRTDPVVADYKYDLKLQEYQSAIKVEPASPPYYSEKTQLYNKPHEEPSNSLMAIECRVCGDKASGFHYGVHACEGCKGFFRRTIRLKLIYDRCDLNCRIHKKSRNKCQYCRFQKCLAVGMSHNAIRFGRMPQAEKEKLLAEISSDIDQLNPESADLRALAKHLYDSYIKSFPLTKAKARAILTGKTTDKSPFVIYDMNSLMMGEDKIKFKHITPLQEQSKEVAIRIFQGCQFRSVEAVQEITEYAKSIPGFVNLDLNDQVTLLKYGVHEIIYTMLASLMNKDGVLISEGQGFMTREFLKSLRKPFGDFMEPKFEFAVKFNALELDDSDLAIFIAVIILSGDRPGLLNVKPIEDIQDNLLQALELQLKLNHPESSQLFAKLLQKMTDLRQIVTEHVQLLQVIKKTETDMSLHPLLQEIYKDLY
Description: Activation of Gal4-tagged human PPARgamma expressed in CHO cells by luciferase reporter gene assay

In the case of `CCc1ccc(CCOc2ccc(CC3SC(=O)NC3=O)cc2)nc1` (stereo not given) [PIOGLITAZONE], the Activity [1] is reported as 100%.

In the case of `CCCc1nc2cc(C(=O)c3ccccc3)ccc2n1Cc1ccc(-c2ccccc2C(=O)O)cc1`, the EC50 [2] is reported as 580 nM and the Activity [1] is reported as 104%.

`CCCc1nc2ccc(Br)cc2n1Cc1ccc(-c2ccccc2C(=O)O)cc1` showed an EC50 [2] of 470 nM and an Activity [1] of 102%.

With `CCCc1nc2c(C)cc(-c3nc4ccccc4n3C)cc2n1Cc1ccc(-c2ccccc2C(=O)O)cc1` the EC50 [2] was 3400 nM and the Activity [1] was 70%.

`CCCc1nc2cc(C(O)c3ccccc3)ccc2n1Cc1ccc(-c2ccccc2C(=O)O)cc1` (stereo not given) showed an EC50 [2] of 2900 nM and an Activity [1] of 100%.

`CCCc1nc2ccc(C(=O)c3ccccc3)cc2n1Cc1ccc(-c2ccccc2C(=O)O)cc1` gave an EC50 [2] of 620 nM and an Activity [1] of 97%.

Work on `CCCc1nc2cc(Br)c(Br)cc2n1Cc1ccc(-c2ccccc2C(=O)O)cc1` yielded an EC50 [2] of 400 nM and an Activity [1] of 74%.

`CCCc1nc2cc(Br)ccc2n1Cc1ccc(-c2ccccc2C(=O)O)cc1` gave an Activity [1] of 103%.

In the case of `CCCc1nc2cc3ccccc3cc2n1Cc1ccc(-c2ccccc2C(=O)O)cc1`, the EC50 [2] is reported as 260 nM and the Activity [1] is reported as 105%.

With `CCCc1nc2ccc(C(O)c3ccccc3)cc2n1Cc1ccc(-c2ccccc2C(=O)O)cc1` (stereo not given) the EC50 [2] was 3500 nM and the Activity [1] was 88%.

With `CCCc1nc2ccccc2n1Cc1ccc(-c2ccccc2C(=O)O)cc1` the EC50 [2] was 1900 nM and the Activity [1] was 67%.

— ChEMBL document CHEMBL1212876, “Characterization of new PPARgamma agonists: benzimidazole derivatives-importance of positions 5 and 6, and computational studies on the binding mode” (Bioorg Med Chem, 2010)
